This experiment concerns the target T1, LHRH rat pituitary receptor (Rattus norvegicus, UniProt P30969).
T1 construct: from tissue; host or cells: rat pituitary
T1 sequence (P30969 1-327): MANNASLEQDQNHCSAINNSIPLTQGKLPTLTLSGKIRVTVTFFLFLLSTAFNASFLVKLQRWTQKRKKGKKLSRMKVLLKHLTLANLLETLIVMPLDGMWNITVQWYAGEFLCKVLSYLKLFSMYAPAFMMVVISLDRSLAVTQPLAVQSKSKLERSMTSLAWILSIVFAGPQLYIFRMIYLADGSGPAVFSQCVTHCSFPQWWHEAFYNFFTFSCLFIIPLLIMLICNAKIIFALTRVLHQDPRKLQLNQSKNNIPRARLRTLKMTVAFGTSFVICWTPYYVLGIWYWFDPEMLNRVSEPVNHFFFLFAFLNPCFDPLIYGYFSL
In words: LHRH rat pituitary receptor binding (pKI). Conditions: receptor binding affinity, negative logarithm of the equilibrium dissociation constants. The protocol: Representative compounds of the present invention were evaluated in in vitro tests for LHRH rat pituitary receptor binding (pKI) and for LH inhibition from rat pituitary cells for antagonist potency (pA2). The tests employed the methods detailed in F. Haviv, et al. J. Med. Chem., 32: 2340-2344 (1989). The receptor binding affinity (pKI) is the negative logarithm of the equilibrium dissociation constants.

Take `CC[C@H]1OC(=O)[C@H](C)[C@@H](OC(=O)N2C(=O)OC[C@@H]2C)[C@H](C)[C@@H](O[C@@H]2O[C@H](C)C[C@H](N(C)CC3(C)CC3)[C@H]2O)[C@](C)(OC)C[C@@H](C)C(=O)[C@H](C)[C@H]2N(CCc3ccc(Cl)c(Cl)c3)C(=O)O[C@]12C` [Example 54, 11-Deoxy-11-[carboxy(3,4-dichlorophenethyl)amino]-3-O-[4-(S)-methyl-oxazolidin-2-one]carbamoyl-5-O-[3'-N-desmethyl-3'-N-(1-methyl-cyclopropyl)methyl]desosaminyl-6-O-methyl-erythronolide A 11,12-(cyclic carbamate)]: affinity was put at a Ki of 1.48 nM.
`CC[C@H]1OC(=O)[C@H](C)[C@@H](OC(=O)N2C(=O)OC[C@@H]2C)[C@H](C)[C@@H](O[C@@H]2O[C@H](C)C[C@H](N(CC3CC3)CC3CC3)[C@H]2O)[C@](C)(OC)C[C@@H](C)C(=O)[C@H](C)[C@H]2N(CCc3ccc(Cl)c(Cl)c3)C(=O)O[C@]12C` [Example 42, 11-Deoxy-11-[carboxy(3,4-dichlorophenethyl)amino]-3-O-[4-(S)-methyl-oxazolidin-2-one]carbamoyl-5-O-(3'-bis-N-desmethyl-3'-bis-N-cyclopropylmethyl)desosaminyl-6-O-methyl-erythronolide A 11,12-(cyclic carbamate)]: the inhibitory constant (Ki) is 0.661 nM. Against the preceding molecule, the Ki is about 2.2-fold lower.
`CC[C@H]1OC(=O)[C@H](C)[C@@H](OC(=O)N2C(=O)OC[C@@H]2C)[C@H](C)[C@@H](O[C@@H]2O[C@H](C)C[C@H](N(C)CC3CC3)[C@H]2O)[C@](C)(OC)C[C@@H](C)C(=O)[C@H](C)[C@H]2N(CCc3ccc(Cl)cc3)C(=O)O[C@]12C` [Example 23, 11-Deoxy-11-[carboxy(4-chlorophenethyl)amino]-3-O-[4-(S)-methyl-oxazolidin-2-one]carbamoyl-5-O-(3'-N-desmethyl-3'-N-cyclopropylmethyl)desosaminyl-6-O-methyl-erythronolide A 11,12-(cyclic carbamate)] had an inhibitory constant (Ki) of 1.45 nM.
Still for that read-out and setting: the value for `CC[C@H]1OC(=O)[C@H](C)[C@@H](OC(=O)N2C(=O)OC[C@@H]2C)[C@H](C)[C@@H](O[C@@H]2O[C@H](C)C[C@H](N(C)CC3(C)CC3)[C@H]2O)[C@](C)(OC)C[C@@H](C)C(=O)[C@H](C)[C@H]2N(CCc3ccc(F)c(Cl)c3)C(=O)O[C@]12C` [Example 55, 11-Deoxy-11-[carboxy(3-chloro-4-fluorophenethyl)amino]-3-O-[4-(S)-methyl-oxazolidin-2-one]carbamoyl-5-O-[3'-N-desmethyl-3'-N-(1-methyl-cyclopropyl)methyl]desosaminyl-6-O-methyl-erythronolide A 11,12-(cyclic carbamate)] was 0.316 nM.
Same read-out and setting: then `CC[C@H]1OC(=O)[C@H](C)[C@@H](OC(=O)N2C(=O)OC[C@@H]2C)[C@H](C)[C@@H](O[C@@H]2O[C@H](C)C[C@H](N(C)CC(C)C)[C@H]2O)[C@](C)(OC)C[C@@H](C)C(=O)[C@H](C)[C@H]2N(CCc3ccc(Cl)c(Cl)c3)C(=O)O[C@]12C` [Example 17, 11-Deoxy-11-[carboxy(3,4-dichlorophenethyl)amino]-3-O-[4-(S)-methyl-oxazolidin-2-one]carbamoyl-5-O-(3'-N-desmethyl-3'-N-isobutyl)desosaminyl-6-O-methyl-erythronolide A 11,12-(cyclic carbamate)], with 0.562 nM; and `CC[C@H]1OC(=O)[C@H](C)[C@@H](OC(=O)N2C(=O)OC[C@@H]2C)[C@H](C)[C@@H](O[C@@H]2O[C@H](C)C[C@H](NCC3CC3)[C@H]2O)[C@](C)(OC)C[C@@H](C)C(=O)[C@H](C)[C@H]2N(CCc3ccc(Cl)c(Cl)c3)C(=O)O[C@]12C` [Example 45, 11-Deoxy-11-[carboxy(3,4-dichlorophenethyl)amino]-3-O-[4-(S)-methyl-oxazolidin-2-one]carbamoyl-5-O-(3'-bis-N-desmethyl-3'-N-cyclopropylmethyl)desosaminyl-6-O-methyl-erythronolide A 11,12-(cyclic carbamate)], with 8.13 nM.
Still for that read-out and setting: the value for `CC[C@H]1OC(=O)[C@H](C)[C@@H](OC(=O)N2C(=O)OC[C@@H]2C)[C@H](C)[C@@H](O[C@@H]2O[C@H](C)C[C@H](N(C)C3CCCC3)[C@H]2O)[C@](C)(OC)C[C@@H](C)C(=O)[C@H](C)[C@H]2N(CCc3ccc(F)c(Cl)c3)C(=O)O[C@]12C` [Example 35, 11-Deoxy-11-[carboxy(3-chloro-4-fluorophenethyl)amino]-3-O-[4-(S)-methyl-oxazolidin-2-one]carbamoyl-5-O-(3'-N-desmethyl-3'-N-cyclopentyl)desosaminyl-6-O-methyl-erythronolide A 11,12-(cyclic carbamate)] was 0.851 nM.
Molecule `CC[C@H]1OC(=O)[C@H](C)[C@@H](OC(=O)N2C(=S)OC[C@@H]2C)[C@H](C)[C@@H](O[C@@H]2O[C@H](C)C[C@H](N(C)CC3CC3)[C@H]2O)[C@](C)(OC)C[C@@H](C)C(=O)[C@H](C)[C@H]2N(CCc3ccc(Cl)c(Cl)c3)C(=O)O[C@]12C` [Example 41, 11-Deoxy-11-[carboxy(3,4-dichlorophenethyl)amino]-3-O-[4-(S)-methyl-oxazolidin-2-thione]carbamoyl-5-O-(3'-N-desmethyl-3'-N-cyclopropylmethyl)desosaminyl-6-O-methyl-erythronolide A 11,12-(cyclic carbamate)] showed an inhibition constant Ki of 10.2 nM.
On the same count and under the same terms, then `CC[C@H]1OC(=O)[C@H](C)[C@@H](OC(=O)N2C(=O)OC[C@@H]2C)[C@H](C)[C@@H](O[C@@H]2O[C@H](C)C[C@H](N(C)C3CCC3)[C@H]2O)[C@](C)(OC)C[C@@H](C)C(=O)[C@H](C)[C@H]2N(CCc3ccc(Cl)c(Cl)c3)C(=O)O[C@]12C` [Example 13, 11-Deoxy-11-[carboxy(3,4-dichlorophenethyl)amino]-3-O-[4-(S)-methyl-oxazolidin-2-one]carbamoyl-5-O-(3'-N-desmethyl-3'-N-cyclobutyl)desosaminyl-6-O-methyl-erythronolide A 11,12-(cyclic carbamate)], with 3.09 nM.
In turn, `CC[C@H]1OC(=O)[C@H](C)[C@@H](OC(=O)N2C(=O)OC[C@@H]2C)[C@H](C)[C@@H](O[C@@H]2O[C@H](C)C[C@H](N(C)C3CCCC3)[C@H]2O)[C@](C)(OC)C[C@@H](C)C(=O)[C@H](C)[C@H]2N(CCc3ccc(F)cc3)C(=O)O[C@]12C` [Example 30, 11-Deoxy-11-[carboxy(4-fluorophenethyl)amino]-3-O-[4-(S)-methyl-oxazolidin-2-one]carbamoyl-5-O-(3'-N-desmethyl-3'-N-cyclopentyl)desosaminyl-6-O-methyl-erythronolide A 11,12-(cyclic carbamate)] had a Ki of 0.129 nM.
On the same count and under the same terms, the value for `CCCN(C)[C@H]1C[C@@H](C)O[C@@H](O[C@@H]2[C@@H](C)[C@H](OC(=O)N3C(=O)OC[C@@H]3C)[C@@H](C)C(=O)O[C@H](CC)[C@@]3(C)OC(=O)N(CCc4ccc(F)cc4)[C@@H]3[C@@H](C)C(=O)[C@H](C)C[C@@]2(C)OC)[C@@H]1O` [Example 31, 11-Deoxy-11-[carboxy(4-fluorophenethyl)amino]-3-O-[4-(S)-methyl-oxazolidin-2-one]carbamoyl-5-O-(3'-N-desmethyl-3'-N-n-propyl)desosaminyl-6-O-methyl-erythronolide A 11,12-(cyclic carbamate)] was 0.955 nM.
In the case of `CC[C@H]1OC(=O)[C@H](C)[C@@H](OC(=O)N2C(=O)OC[C@@H]2C)[C@H](C)[C@@H](O[C@@H]2O[C@H](C)C[C@H](N(CC3CC3)CC3CC3)[C@H]2O)[C@](C)(OC)C[C@@H](C)C(=O)[C@H](C)[C@H]2N(CCc3ccc(F)c(Cl)c3)C(=O)O[C@]12C` [Example 43, 11-Deoxy-11-[carboxy(3-chloro-4-fluorophenethyl)amino]-3-O-[4-(S)-methyl-oxazolidin-2-one]carbamoyl-5-O-(3'-bis-N-desmethyl-3'-bis-N-cyclopropylmethyl)desosaminyl-6-O-methyl-erythronolide A 11,12-(cyclic carbamate)], the Ki was 0.692 nM.
Molecule `CC[C@H]1OC(=O)[C@H](C)[C@@H](OC(=O)N2C(=O)OC[C@@H]2C)[C@H](C)[C@@H](O[C@@H]2O[C@H](C)C[C@H](N(CC)C(C)C)[C@H]2O)[C@](C)(OC)C[C@@H](C)C(=O)[C@H](C)[C@H]2N(CCc3ccc(Cl)c(Cl)c3)C(=O)O[C@]12C` [Example 20, 11-Deoxy-11-[carboxy(3,4-dichlorophenethyl)amino]-3-O-[4-(S)-methyl-oxazolidin-2-one]carbamoyl-5-O-(3'-bis-N-desmethyl-3'-N-ethyl-3'-N-isopropyl)desosaminyl-6-O-methyl-erythronolide A 11,12-(cyclic carbamate)] gave a Ki of 0.589 nM.
Turning to `CCCN(C)[C@H]1C[C@@H](C)O[C@@H](O[C@@H]2[C@@H](C)[C@H](OC(=O)N3C(=O)OC[C@@H]3C)[C@@H](C)C(=O)O[C@H](CC)[C@@]3(C)OC(=O)N(CCc4ccc(Cl)cc4)[C@@H]3[C@@H](C)C(=O)[C@H](C)C[C@@]2(C)OC)[C@@H]1O` [Example 27, 11-Deoxy-11-carboxy(4-chlorophenethyl)amino]-3-O-[4-(S)-methyl-oxazolidin-2-one]carbamoyl-5-O-(3'-N-desmethyl-3'-N-n-propyl)desosaminyl-6-O-methyl-erythronolide A 11,12-(cyclic carbamate)], the “p KI” value came to 9.60.

The Ki is a measure of affinity in units of concentration, obtained from inhibition or displacement.
